{"source": "patent US20120135949A1", "about": "“COMBINATION THERAPY FOR TREATING HCV INFECTION” (BOEHRINGER INGELHEIM INTERNATIONAL GMBH, priority 2010, published 2012)", "origin": "cited, not measured here", "system": "HCV", "conditions": "compound (1) monotherapy, 14 days, 1a and 1b patients", "data": [{"compound": "C=C[C@@H]1C[C@]1(NC(=O)[C@@H]1C[C@H](Oc2cc(-c3csc(NC(=O)C(C)C)n3)nc3c(Br)c(OC)ccc23)CN1C(=O)[C@@H](NC(=O)OC1CCCC1)C(C)(C)C)C(=O)O", "note": "[Compound (1)]", "values": [{"measurement": "Virologic rebound during the treatment period", "value": "vast majority of both 1a and 1b patients demonstrated virologic rebound"}]}]}
